Test results reported in US20040235857A1, “Crystalline therapeutic agent” (Pfizer Inc, priority 2003, published 2004).

Key:
[1] = Dynamic vapour sorption (DVS) moisture sorption; type: physicochemical; settings: DVS isotherm, 30° C.
Procedure: The moisture sorption of the hydrated forms of sildenafil hemi-citrate was measured using a Surface Measurement Systems Ltd. Dynamic Vapour Sorption (DVS) Automated Water Sorption Analyser. A sample of the higher hydrate was initially equilibrated at about 45% RH and then analysed from 0 to 90% RH in relative humidity steps of 10% (exposure time of 6 hours per step). A second analysis was carried out from 35 to 65% RH in 5% RH steps to gain more detail in this humidity range (exposure time variable, weight stability of 0.0003%/minute gained for each steps). The temperature was maintained at 30° C. throughout the equilibration and analysis stages.
Sildenafil hemi-citrate is a hygroscopic material. The isotherm is represented in FIG. 5. At humidities greater than 55% RH the higher hydrate is present and from 30 to 40% RH the lower hydrate is present and at 0% RH the dehydrated form is present. Hysteresis occurs between the sorption and desorption isotherms in the 10 to 30 and 40 to 55% RH regions. This is classically seen for hydrates where kinetics associated with hydration and dehydration result in the events occurring at different humidities. There are slow kinetics associated with the rate of sorption (see FIG. 6) at 50% RH (illustrated by an equilibration time of 21 hours).

[2] = TGA of the higher hydrated form of sildenafil hemi-citrate; type: physicochemical; settings: temperatures in excess of 150° C.; attributed to degradation of the citrate ion
Procedure: A TGA trace showing the relative % weight loss versus temperature for the solid form of the present invention is illustrated in FIG. 7. This trace was obtained using a Perkin-Elmer Pyris 1 TGA instrument. The sample, ideally about 5 to about 10 mg, was heated at 20° C./minute from ambient to about 300° C. with a purge gas of nitrogen.

CCCc1nn(C)c2c(=O)[nH]c(-c3cc(S(=O)(=O)N4CCN(C)CC4)ccc3OCC)nc12.CCCc1nn(C)c2c(=O)[nH]c(-c3cc(S(=O)(=O)N4CCN(C)CC4)ccc3OCC)nc12.O=C(O)CC(O)(CC(=O)O)C(=O)O [dehydrated hydrate]
relative humidity at which the form is present [1]: 0 % RH | second weight loss [2]: about 12%
